Source: patent US20240293351A1, “METHODS OF ADMINISTERING SYNTHETIC TRITERPENOIDS” (REATA PHARMACEUTICALS HOLDINGS, LLC, priority 2020, published 2024)
Entries after “also recorded” stand apart in the source; their conditions may differ. Where two headings read alike, the source gives them in different places.

Tests used:
[1] = Hygroscopicity of RTA 408 solid forms (DVS, TGA-MS); type: physicochemical
HIV = conditions: macrophages; cited from earlier work
[2] = monkey, in vivo; cited from earlier work
[3] = Phase 1 drug-drug interaction study: omaveloxolone alone and with itraconazole in healthy subjects
CYP3A4/5 [4] = assay: in vitro; conditions: human, human liver microsomes
cerebral granule neurons = conditions: cited from earlier work
CYP3A4/5 [5] = conditions: human liver microsomes and recombinantly-expressed CYPs
[6] = Storage stability of RTA 408 amorphous form under elevated temperature and humidity (PXRD); type: physicochemical; conditions: open at 25° C./62% r.h. and 40° C./75% r.h., closed at 60° C. and 80° C., up to four weeks
Method: In addition, the stability of the amorphous form was investigated by storage under elevated temperature and humidity conditions (open at 25° C./62% r.h. and 40° C./75% r.h. and closed at 60° C. and 80° C.). After one week, two weeks, and four weeks, the stored samples were analyzed by PXRD.

[7] = Chemical stability of RTA 408 amorphous form in organic solvents and aqueous media; type: physicochemical; conditions: 1 mg/mL; acetone, EtOAc, MeOH, MeCN, 1% aq. Tween 80, SDS, CTAB; 6 h, 24 h, 2 d, 7 d
Method: The chemical stability of the amorphous form was investigated in organic solvents, including acetone, EtOAc, MeOH, and MeCN, as well as different aqueous media (e.g., 1% aq. Tween 80, 1% aq. SDS, 1% aq. CTAB) at a concentration of 1 mg/mL at time points 6 h, 24 h, 2 d, and 7 d.

[8] = cited from earlier work; for Occurrence of Death / Occurrence of ESRD: ITT
[9] = Drug-drug interaction study: bardoxolone methyl alone and with itraconazole in healthy volunteers; conditions: itraconazole alone, 200 mg daily (Period 2)
[10] = cited from earlier work
[11] = 150 mg omaveloxolone alone (Reference), plasma
[12] = 200 mg itraconazole QD + 150 mg omaveloxolone (Test), plasma
[13] = Test vs Reference statistical analysis
[14] = Test: 200 mg itraconazole QD + 150 mg omaveloxolone, n = 13
[15] = omaveloxolone + itraconazole vs omaveloxolone alone
[16] = ASCEND, avosentan 25 mg (N = 455)
[17] = ASCEND, avosentan 50 mg (N = 478)

CC1(C)CC[C@]2(NC(=O)C(C)(F)F)CC[C@]3(C)[C@H](C(=O)C=C4[C@@]5(C)C=C(C#N)C(=O)C(C)(C)[C@@H]5CC[C@]43C)[C@@H]2C1
Hygroscopicity, mass gain ([1]; from 50% r.h. to 85% r.h.): ~0.7 wt.-%

CC1(C)CC[C@]2(C(=O)O)CC[C@]3(C)[C@H](C(=O)C=C4[C@@]5(C)C=C(C#N)C(=O)C(C)(C)[C@@H]5CC[C@]43C)[C@@H]2C1 [CDDO, 2-cyano-3,12-dioxooleane-1,9(11)-dien-28-oic acid]
Replication of HIV (HIV): can inhibit the replication of HIV in macrophages

COC(=O)[C@]12CCC(C)(C)C[C@H]1[C@H]1C(=O)C=C3[C@@]4(C)C=C(C#N)C(=O)C(C)(C)[C@@H]4CC[C@@]3(C)[C@]1(C)CC2 [Form B CDDO-Me]
Oral bioavailability [2]: higher than that of Form A

CC1(C)CC[C@]2(NC(=O)C(C)(F)F)CC[C@]3(C)[C@H](C(=O)C=C4[C@@]5(C)C=C(C#N)C(=O)C(C)(C)[C@@H]5CC[C@]43C)[C@@H]2C1 [Omaveloxolone]
AUC0-t, geometric mean [3, 11]: 1730 ng·h/mL
AUC0-∞, geometric mean [3, 11]: 1730 ng·h/mL
CL/F, geometric mean [3, 11]: 86.7 L/h
Cmax, geometric mean [3, 11]: 43.0 ng/mL
t1/2, geometric mean [3, 11]: 89.8 h
Increase in systemic exposure, AUC0-∞, with itraconazole ([3]; 150 mg, itraconazole 200 mg QD): approximately 4 fold
Increase in systemic exposure, Cmax, with itraconazole ([3]; 150 mg, itraconazole 200 mg QD): ~3 fold
Ratio (90% CI) of geometric LS means, AUC0-∞ (with itraconazole vs alone) ([3]; 150 mg, itraconazole 200 mg QD): 4.12 (3.48, 4.87)
Ratio (90% CI) of geometric LS means, Cmax (with itraconazole vs alone) ([3]; 150 mg, itraconazole 200 mg QD): 2.77 (2.17, 3.54)
AUC0-t, geometric mean [3, 12]: 6340 ng·h/mL
AUC0-∞, geometric mean [3, 12]: 7280 ng·h/mL
CL/F, geometric mean [3, 12]: 20.6 L/h
Cmax, geometric mean [3, 12]: 116 ng/mL
t1/2, geometric mean [3, 12]: 78.1 h
AUC0-∞, GLSM ([3]; Reference: 150 mg omaveloxolone alone, n = 14): 1730 ng·h/mL
Cmax, GLSM ([3]; Reference: 150 mg omaveloxolone alone, n = 15): 43.0 ng/mL
AUC0-∞, Within-subject CV % [3, 13]: 24.4%
Cmax, Within-subject CV % [3, 13]: 36.8%
AUC0-∞, GLSM [3, 14]: 7130 ng·h/mL
Cmax, GLSM [3, 14]: 119 ng/mL
half-life ([3]; both, human, plasma, oral, 150 mg): 89.8 h
Tmax ([3]; both, human, plasma, oral, 150 mg, Median Tmax (min-max), 150 mg single dose, alone): 12 h
Tmax ([3]; both, human, plasma, oral, 150 mg, tmax, median, Reference: 150 mg omaveloxolone alone, n = 15, Wilcoxon signed rank analysis): 8 h
Tmax ([3]; both, human, plasma, oral, Median Tmax (min-max), 150 mg co-administered with 200 mg itraconazole QD): 6 h
Tmax ([3]; both, human, plasma, oral, tmax, median, Test: 200 mg itraconazole QD + 150 mg omaveloxolone, n = 13, Wilcoxon signed rank analysis): 6 h
Within-subject variability of AUC0-∞, geometric CV % ([3]; human, in vivo): 24.4%
Within-subject variability of Cmax, geometric CV % ([3]; human, in vivo): 36.8%
AUC0-∞, Ratio of GLSMs (Test:Reference) [3, 15]: 4.12
Cmax, Ratio of GLSMs (Test:Reference) [3, 15]: 2.77
Subjects reporting TEAEs ([3]; omaveloxolone alone, 15 subjects): 2 subjects
Subjects reporting TEAEs ([3]; omaveloxolone in combination with itraconazole): no subjects reported TEAEs
Clinical laboratory evaluations, vital signs, ECG parameters ([3]; whole study): no clinically significant findings
Deaths or SAEs ([3]; whole study): no deaths or SAEs
Km (CYP3A4/5 [4]): 1.12 µM
Protection from hydrogen peroxide-induced oxidative stress (cerebral granule neurons): significant protection
Metabolizing enzyme (CYP3A4/5 [5]): metabolized by CYP3A4

CC1(C)CC[C@]2(NC(=O)C(C)(F)F)CC[C@]3(C)[C@H](C(=O)C=C4[C@@]5(C)C=C(C#N)C(=O)C(C)(C)[C@@H]5CC[C@]43C)[C@@H]2C1 [RTA 408 amorphous form]
Stability under elevated temperature and humidity conditions [6]: stable for at least four weeks; also recorded: None of the samples differed from the amorphous starting material
Hygroscopicity, Δm ([1]; DVS, 50%→85% r.h.): +0.4%
Chemical stability, decomposition [7]: Decomposition ≥1% was observed only for solutions in MeCN after 7 days and for suspensions in the 1% aqueous Tween 80 medium

COc1ccccc1Oc1c(NS(=O)(=O)c2ccc(C)cn2)nc(-c2ccncc2)nc1OC [avosentan]
Occurrence of Death [8, 16]: 3.6%
Occurrence of ESRD [8, 16]: 4.4%
Occurrence of Death [8, 17]: 4.6%
Occurrence of ESRD [8, 17]: 5.0%
Death ([8]; ASCEND): modest, non-significant increase in death
ESRD events ([8]; ASCEND): small, numerical reduction in ESRD events
Risk of congestive heart failure (CHF) ([8]; human, in vivo): approximate three-fold increase

CCC(C)n1ncn(-c2ccc(N3CCN(c4ccc(OCC5COC(Cn6cncn6)(c6ccc(Cl)cc6Cl)O5)cc4)CC3)cc2)c1=O (stereo not shown) [itraconazole]
Subjects with a TEAE, n (%) [9]: 1 (6.7%)
Peak plasma level at steady state ([10]; 100 mg once daily): 0.5 µg/mL
Peak plasma level at steady state ([10]; 200 mg once daily): 1.1 µg/mL
Peak plasma level at steady state ([10]; 200 mg twice daily): 2.0 µg/mL
Renal excretion of itraconazole and hydroxy-itraconazole ([10]; in vivo): less than 1 % of an intravenous dose
Time to peak steady state ([10]; repeated administration): about 15 days
